Measurements taken from ChEMBL document CHEMBL5728000, “GCN2 inhibitors and uses thereof” (2020).

These molecules were tested against eIF-2-alpha kinase GCN2 (Homo sapiens, UniProt Q9P2K8) (assay: Enzyme Inhibition Assay: An assay buffer containing GCN2 kinase and (RS)7 was prepared. 4.7 μL of this stock solution was placed per well of a black, low volume, 384-well microtitre plate (e.g. catalogue number 3676, Corning Inc., NY). To this was added […] containing serial dilutions of the test compound (typical final concentrations of test compound were 0 to 8 μM). The plate was incubated for 10 minutes at 25° C. prior to the addition of 4.7 μL of ATP stock buffer to initiate the enzyme reaction. The reaction was allowed to proceed for 1 hour at 25° C., prior to the addition of 10 μL detection buffer (consisting of appropriate concentrations of ADP2 antibody and ADP Alexa633 tracer in 1× stop and detect buffer as supplied by BellBrook Labs). The reaction was left to incubate for 1 hour at 25° C., prior to measuring the fluorescence polarisation signal (mP) in each well using a PHERAstar FS reader (BMG Labtech, Germany).).
Chain of eIF-2-alpha kinase GCN2 (Q9P2K8 whole entry): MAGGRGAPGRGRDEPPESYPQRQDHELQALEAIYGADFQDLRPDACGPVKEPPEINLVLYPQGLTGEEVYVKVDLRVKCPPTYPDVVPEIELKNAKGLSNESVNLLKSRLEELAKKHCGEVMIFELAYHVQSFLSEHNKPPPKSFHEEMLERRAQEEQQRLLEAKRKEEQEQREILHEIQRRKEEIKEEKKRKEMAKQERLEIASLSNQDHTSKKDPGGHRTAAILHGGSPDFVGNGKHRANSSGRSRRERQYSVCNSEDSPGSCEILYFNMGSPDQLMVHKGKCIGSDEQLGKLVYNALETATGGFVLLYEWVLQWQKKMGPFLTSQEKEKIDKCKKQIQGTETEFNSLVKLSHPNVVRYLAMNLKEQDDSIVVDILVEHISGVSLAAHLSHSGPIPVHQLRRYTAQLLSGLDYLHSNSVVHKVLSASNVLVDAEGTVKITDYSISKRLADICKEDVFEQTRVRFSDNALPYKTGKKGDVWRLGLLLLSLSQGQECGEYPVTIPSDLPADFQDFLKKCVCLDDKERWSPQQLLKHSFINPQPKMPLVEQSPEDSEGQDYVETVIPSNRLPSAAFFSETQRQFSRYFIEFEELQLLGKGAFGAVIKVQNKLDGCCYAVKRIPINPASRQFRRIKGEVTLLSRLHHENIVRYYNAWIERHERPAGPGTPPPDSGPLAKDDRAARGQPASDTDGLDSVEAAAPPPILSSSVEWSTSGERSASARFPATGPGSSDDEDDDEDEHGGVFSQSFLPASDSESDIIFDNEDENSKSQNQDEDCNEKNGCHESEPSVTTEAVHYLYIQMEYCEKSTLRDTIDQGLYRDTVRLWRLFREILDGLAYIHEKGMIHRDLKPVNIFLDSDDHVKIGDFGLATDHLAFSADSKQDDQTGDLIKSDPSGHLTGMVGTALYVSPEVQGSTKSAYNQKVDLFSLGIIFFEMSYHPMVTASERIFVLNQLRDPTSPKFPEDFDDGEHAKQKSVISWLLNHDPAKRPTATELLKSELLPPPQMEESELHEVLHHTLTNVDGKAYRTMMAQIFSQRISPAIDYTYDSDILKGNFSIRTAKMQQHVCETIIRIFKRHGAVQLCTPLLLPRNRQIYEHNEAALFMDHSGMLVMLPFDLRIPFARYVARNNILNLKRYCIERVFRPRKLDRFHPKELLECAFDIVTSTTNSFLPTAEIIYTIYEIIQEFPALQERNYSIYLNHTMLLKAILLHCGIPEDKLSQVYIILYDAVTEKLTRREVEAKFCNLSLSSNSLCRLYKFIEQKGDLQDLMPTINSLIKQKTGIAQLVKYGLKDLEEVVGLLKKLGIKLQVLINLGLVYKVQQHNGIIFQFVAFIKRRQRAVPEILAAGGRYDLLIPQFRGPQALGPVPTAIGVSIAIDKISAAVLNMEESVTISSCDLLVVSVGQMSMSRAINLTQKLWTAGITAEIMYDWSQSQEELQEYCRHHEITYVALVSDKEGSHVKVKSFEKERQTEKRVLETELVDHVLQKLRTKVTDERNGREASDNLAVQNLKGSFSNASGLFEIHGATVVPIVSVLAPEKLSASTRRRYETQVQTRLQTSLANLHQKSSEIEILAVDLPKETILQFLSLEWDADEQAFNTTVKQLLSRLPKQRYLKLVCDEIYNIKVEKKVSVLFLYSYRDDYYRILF
For C[C@@H]1CN(c2nccc(-c3cnc4ccc(C(F)(F)F)cn34)n2)C[C@H](c2cn[nH]c2)O1 (relative stereo), the Ki was less than 10 nM. For Cc1[nH]ncc1[C@H]1CN(c2nccc(-c3cnc4ccc(C(F)(F)F)cn34)n2)C[C@@H](C)O1 (relative stereo), the Ki was less than 10 nM. Molecule C[C@H]1C[C@@H](c2cn[nH]c2)CN(c2nccc(-c3cnc4ccc(C(F)(F)F)cn34)n2)C1 (mixture of isomers) has a Ki of less than 10 nM. Cc1n[nH]cc1[C@H]1CN(c2ccnc(-c3cnc4ccc(C(F)(F)F)cn34)n2)C[C@@H](C)O1 (relative stereo) showed a Ki of less than 10 nM. Molecule Cc1[nH]ncc1[C@@H]1CN(c2nccc(-c3cnc4ccc(C(F)(F)F)cn34)n2)C[C@H](C)O1 has a Ki of less than 10 nM.
